We go through one compound from patent US11970455B1, “7-(4-fluorobenzylidene)-4-(4-fluorophenyl)-2-methoxy-6,7-dihydro-5H-cyclopenta[b]pyridine-3-carbonitrile as an antimicrobial compound” (KING FAISAL UNIVERSITY, priority 2023, dated 2024).

SMILES strings stand for the structures.

In one data set the test system is Staphylococcus aureus. In words: Antimicrobial testing by agar dilution, St. Aereus. The class given is cell-based. The note with it: after 10, 20, 40 and 60 min at all dilutions 1:100, 1:200, 1:400, 1:800. As to the method:
(§1) The antimicrobial properties of the 7-(4-fluorobenzylidene)-4-(4-fluorophenyl)-2-methoxy-6,7-dihydro-5H-cyclopenta[b]pyridine-3-carbonitrile was studied by the method of agar dilution. Test solutions of each compound was prepared in concentration of 1% using dimethylformamide as a solvent then they are diluted in physiological solution to obtain the final experimental dilutions 1:100, 1:200, 1:400, 1:800. The effect of these substances are compared with furacillin in a controllable study. The testing microbes used were gram positive bacteria Staphylococcus aureus, gram negative bacteria Pseudomonas aeruginosa, Escherichia coli and Candida albicans fungi were taken. The experiments used for this survey were meat-pentonlu agar (EPA) for cultivation of bacteria and Saburo environment for fungi. Each experiment used 1 mL of test solution on each plate 500 min. Add 2 drops of emulsified with microbes feel. All experimental samples were taken from the agar after 10, 20, 40, 60 minutes in the environment on the basis of Patrk planted. Bacteria were cultivated at a temperature of 37° C. for 1 day and the mushroom was kept in a thermostat for […] at a temperature of 28° C. Then the results were checked.

Another data set has as its system Escherichia coli. In words: Antimicrobial testing by agar dilution, E. Coli. The note with it: after 10, 20, 40 and 60 min at all dilutions 1:100, 1:200, 1:400, 1:800. The class given is cell-based. How it is done:
as §1
In general terms: In agar dilution the substance is mixed into plates at graded concentrations.

The next data set has as its system Pseudomonas aeruginosa. In words: Antimicrobial testing by agar dilution, Ps. aeruginosa. The class given is cell-based. Particulars: after 10, 20, 40 and 60 min at all dilutions 1:100, 1:200, 1:400, 1:800. How it is done: as §1
The next data set has as its system Candida albicans. In words: Antimicrobial testing by agar dilution, Candida albicans. In kind it is cell-based. Particulars: after 10, 20, 40 and 60 min at all dilutions 1:100, 1:200, 1:400, 1:800. As to the method:
as §1

Regarding `COc1nc2c(c(-c3ccc(F)cc3)c1C#N)CC/C2=C\c1ccc(F)cc1` [7-(4-fluorobenzylidene)-4-(4-fluorophenyl)-2-methoxy-6,7-dihydro-5H-cyclopenta[b]pyridine-3-carbonitrile], the melting point (as a rule, the temperature of the solid-liquid transition) was 136 to 138 °C. Also, in the data set on Staphylococcus aureus, the inhibition activity entry was “most higher inhibition activity”. Besides, the inhibition activity entry in the data set with Escherichia coli is listed as “most higher inhibition activity”. Further, in the data set with Pseudomonas aeruginosa, the inhibition activity entry was “most higher inhibition activity”. Besides, in the data set on Candida albicans, the inhibition activity result is given as “most higher inhibition activity”.
